# Results as given in patent US20240290636A1, “SUBSTRATE TREATING METHOD, SUBSTRATE TREATING APPARATUS, AND TREATMENT LIQUID” (SCREEN Holdings Co., Ltd., priority 2021, published 2024).
# What was measured:
# [1] = Vapor pressure of the sublimable substance; details: absolute pressure
# Protocol: The sublimable substance has a vapor pressure of 0.1 Pa or more and 1.0 Pa or less at normal temperatures. Here, the normal temperatures include a room temperature. The normal temperatures fall within a temperature range of 5° C. or more and 35° C. or less, for example. The normal temperatures fall within a temperature range of 10° C. or more and 30° C. or less, for example. In this specification, the value of vapor pressure is indicated as absolute pressure relative to absolute vacuum.
# [2] = From the text: The ability of the solvent to dissolve the sublimable substance is indicated, for example, by the solubility of the sublimable substance in the solvent. Hereinafter, the solubility of the sublimable substance in the solvent is appropriately referred to as solubility Rm. The solubility Rm is a limit amount of sublimable substance that is soluble in a certain amount of solvent. As the solubility Rm increases, the ability of the solvent to dissolve the sublimable substance increases. Therefore, the solubility Rm is preferably high.
# In general, the solubility Rm varies with temperature. The treatment liquid is used at normal temperatures. Therefore, the solubility Rm is preferably high at normal temperatures. The solubility Rm is preferably 150 vol % or more at normal temperatures.
# For example, when the maximum volume of the sublimable substance soluble in the solvent of volume Q2c is Q1m, the solubility Rm is a ratio of the maximum volume Q1m to the volume Q2c. Specifically, the solubility Rm is defined by the following formula.
vapor pressure at 25° C. [1] [Pa],solubility Rm at 25° C. [2] [vol %],solubility Rm at normal temperatures [2] [vol %],Compound
0.27,186,≥ 150,CC(=NO)c1ccccc1 [acetophenone oxime]
1.45,–,–,ON=C1CCCCC1 [cyclohexanone oxime]

Compound,vapor pressure at 25° C. [1] [Pa],solubility Rm at 25° C. [2] [vol %],solubility Rm at normal temperatures [2] [vol %]
CC(=NO)C(C)(C)C [pinacolone oxime],35.3,–,–
